Data reported in patent publication US20070281992A1, “COMBINATION OF GYRASE B INHIBITORS AND PROTEIN SYNTHESIS INHIBITORS AND USES THEREOF” (priority 2006, published 2007).
Like-named read-outs stand apart in the source and are kept apart here.

How the values were obtained:
Assay type in all cases: cell-based
[1] = test system: Vancomycin-intermediate Staphylococcus epidermidis Isolates; test: MIC assay (NCCLS broth dilution), VISE isolates; conditions: for MIC: read-out: Minimal Inhibitory Concentration
Method: (§1) Antibiotics: novobiocin, tetracycline, minocycline, oxacillin, and vancomycin were all purchased from Sigma-Aldrich. Linezolid was obtained from Pfizer, Inc. Novobiocin/tetracycline and novobiocin/minocycline were tested in a 2.5:1 ratio to mimic the serum levels. (Vavra, J. J., 1967, Development of resistance to novobiocin, tetracycline, and novobiocin-tetracycline combinations in Staphylococcus aureus populations, J. Bacteriol 93(3):801). Compounds were tested across a concentration range consisting of 11 two-fold serial dilutions of test agent.
(§2) Stock solutions were prepared in sterile deionized water; novobiocin stock concentration was 1600 μg/mL and all other drugs stock solutions were prepared at 640 μg/mL. The stock solutions were allowed to sit at room temperature for one hour to auto-sterilize prior to use in the test. All compounds were in solution in water. The control agent was vancomycin hydrochloride, Sigma Chemical Lot # 015K0825.
(§3) The test organisms for the assay were 52 MSSA, 52 MRSA, 8 VISA, 7 VISE, and 3 LRSA isolates. Quality control strains included Staphylococcus aureus 0100 (ATCC 29213) and Enterococcus faecalis (ATCC 29212).
(§4) The MIC assay was performed according to published NCCLS guidelines. (National Committee for Clinical Laboratory Standards, Methods for Dilution Antimicrobial Susceptibility Tests for Bacteria that Grow Aerobically; Approved Standard-Sixth Edition, NCCLS Document M7-A6 [ISBN 1-56238-486-4], NCCLS, 940 West Valley Road, Suite 1400, Wayne, Pa. 19087-1898 USA, 2003). The test medium was Mueller Hinton II Broth for all organisms.

[2] = test system: Vancomycin-intermediate Staphylococcus aureus Isolates; test: MIC assay (NCCLS broth dilution), VISA isolates; conditions: for MIC: read-out: Minimal Inhibitory Concentration
Method: as §1, §2, §3, §4

[3] = test system: Methicillin-Susceptible Staphylococcus aureus Isolates; test: MIC assay (NCCLS broth dilution), MSSA clinical isolates; conditions: for MIC: read-out: Minimal Inhibitory Concentration
Method: as §1, §2, §3, §4

[4] = test system: Linezolid-Resistant Staphylococcus aureus Isolates; test: MIC assay (NCCLS broth dilution), LRSA isolates; conditions: for MIC: read-out: Minimal Inhibitory Concentration
Method: as §1, §2, §3, §4

[5] = test system: Unconfirmed Vancomycin-intermediate Staphylococcus epidermidis Isolates; test: MIC assay (NCCLS broth dilution), unconfirmed VISE isolates; conditions: Staphylococcus epidermidis; for MIC: read-out: Minimal Inhibitory Concentration
Method: as §1, §2, §3, §4

[6] = test system: Unconfirmed Vancomycin-intermediate Staphylococcus aureus Isolates; test: MIC assay (NCCLS broth dilution), unconfirmed VISA isolates; conditions: Staphylococcus aureus; for MIC: read-out: Minimal Inhibitory Concentration
Method: as §1, §2, §3, §4

[7] = test system: Enterococcus faecalis (ATCC 29212); test: MIC assay, quality control strain E. faecalis ATCC 29212; conditions: ATCC29212, E. faecalis ATCC 29212, repeat runs 22FEB06-09MAR06, combinations at 2.5:1, read-out: Minimal Inhibitory Concentration, quality control
Method: as §1, §2, §3, §4

[8] = Staphylococcus aureus, 52 MSSA isolates, combinations at 2.5:1, given as NB/partner

Cc1onc(-c2ccccc2)c1C(=O)N[C@@H]1C(=O)N2[C@@H]1SC(C)(C)[C@@H]2C(=O)O [OX, oxacillin]
.12 to .5 µg/mL: MIC Range ([3]; 52 MSSA isolates, Mueller Hinton II Broth, combinations at 2.5:1, given as NB/partner)
8 µg/mL: MIC ([1]; Staphylococcus epidermidis, VISE isolate 2020, 09MAR06) | MIC [7]
0.25 µg/mL: MIC ([3]; Staphylococcus aureus, MSSA isolate 134, 03MAR06) | MIC ([3]; Staphylococcus aureus, MSSA isolate 135, 03MAR06) | MIC ([3]; Staphylococcus aureus, MSSA isolate 753, 22FEB06) | MIC ([3]; Staphylococcus aureus, MSSA isolate 754, 22FEB06) | MIC ([3]; Staphylococcus aureus, MSSA isolate 754, 24FEB06) | MIC ([3]; Staphylococcus aureus, MSSA isolate 755, 22FEB06) | MIC ([3]; Staphylococcus aureus, MSSA isolate 756, 03MAR06) | MIC ([3]; Staphylococcus aureus, MSSA isolate 780, 03MAR06) | MIC ([3]; Staphylococcus aureus, MSSA isolate 781, 03MAR06) | MIC ([3]; Staphylococcus aureus, MSSA isolate 782, 22FEB06) | MIC ([3]; Staphylococcus aureus, MSSA isolate 783, 22FEB06) | MIC ([3]; Staphylococcus aureus, MSSA isolate 784, 22FEB06) | MIC ([3]; Staphylococcus aureus, MSSA isolate 786, 22FEB06) | MIC ([3]; Staphylococcus aureus, MSSA isolate 787, 22FEB06) | MIC ([3]; Staphylococcus aureus, MSSA isolate 788, 22FEB06) | MIC ([3]; Staphylococcus aureus, MSSA isolate 789, 24FEB06) | MIC ([3]; Staphylococcus aureus, MSSA isolate 790, 24FEB06) | MIC ([3]; Staphylococcus aureus, MSSA isolate 791, 24FEB06) | MIC ([3]; Staphylococcus aureus, MSSA isolate 793, 24FEB06) | MIC ([3]; Staphylococcus aureus, MSSA isolate 794, 24FEB06) | MIC ([3]; Staphylococcus aureus, MSSA isolate 994, 22FEB06) | MIC ([3]; Staphylococcus aureus, MSSA isolate 996, 22FEB06) | MIC ([3]; Staphylococcus aureus, MSSA isolate 997, 22FEB06) | MIC ([3]; Staphylococcus aureus, MSSA isolate 999, 22FEB06) | MIC ([3]; Staphylococcus aureus, MSSA isolate 1000, 24FEB06) | MIC ([3]; Staphylococcus aureus, MSSA isolate 1001, 24FEB06) | MIC ([3]; Staphylococcus aureus, MSSA isolate 1003, 03MAR06) | MIC ([3]; Staphylococcus aureus, MSSA isolate 1005, 24FEB06) | MIC ([3]; Staphylococcus aureus, MSSA isolate 1006, 24FEB06) | MIC ([3]; Staphylococcus aureus, MSSA isolate 1007, 24FEB06) | MIC ([3]; Staphylococcus aureus, MSSA isolate 1008, 24FEB06) | MIC ([3]; Staphylococcus aureus, MSSA isolate 1134, 24FEB06) | MIC ([3]; Staphylococcus aureus, MSSA isolate 1656, 03MAR06) | MIC ([3]; Staphylococcus aureus, MSSA isolate 1662, 03MAR06) | MIC ([3]; Staphylococcus aureus, MSSA isolate 1663, 03MAR06) | MIC ([3]; Staphylococcus aureus, MSSA isolate 1666, 03MAR06) | MIC ([3]; Staphylococcus aureus, MSSA isolate 1667, 03MAR06) | MIC ([3]; Staphylococcus aureus, MSSA isolate 1668, 03MAR06) | MIC ([3]; Staphylococcus aureus, MSSA isolate 1671, 03MAR06) | MIC ([3]; Staphylococcus aureus, MSSA isolate 1728, 03MAR06) | MIC50 [3, 8] | MIC90 [3, 8] | MIC ([6]; Unconfirmed VISA isolate 2017, 03MAR06)
0.12 µg/mL: MIC ([3]; Staphylococcus aureus, MSSA isolate 133, 03MAR06) | MIC ([3]; Staphylococcus aureus, MSSA isolate 779, 22FEB06) | MIC ([3]; Staphylococcus aureus, MSSA isolate 785, 22FEB06) | MIC ([3]; Staphylococcus aureus, MSSA isolate 792, 03MAR06) | MIC ([3]; Staphylococcus aureus, MSSA isolate 995, 03MAR06) | MIC ([3]; Staphylococcus aureus, MSSA isolate 998, 03MAR06) | MIC ([3]; Staphylococcus aureus, MSSA isolate 1132, 03MAR06) | MIC ([3]; Staphylococcus aureus, MSSA isolate 1654, 03MAR06) | MIC ([3]; Staphylococcus aureus, MSSA isolate 1728, retest 09MAR06)
0.5 µg/mL: MIC ([1]; Staphylococcus epidermidis, VISE isolate 2021, 09MAR06) | MIC ([3]; Staphylococcus aureus, MSSA isolate 1002, 24FEB06) | MIC ([3]; Staphylococcus aureus, MSSA isolate 1009, 24FEB06) | MIC ([3]; Staphylococcus aureus, MSSA isolate 1131, 24FEB06) | MIC ([3]; Staphylococcus aureus, MSSA isolate 1133, 24FEB06)
0.5 to 16 µg/mL: MIC Range ([1]; 4 VISE isolates, combinations at 2.5:1)
2 µg/mL: MIC ([1]; Staphylococcus epidermidis, VISE isolate 2023, 03MAR06) | MIC50 ([1]; Staphylococcus epidermidis, 4 VISE isolates, combinations at 2.5:1)
> 32 µg/mL: MIC ([2]; Staphylococcus aureus, VISA isolate 2012, 03MAR06) | MIC ([2]; Staphylococcus aureus, VISA isolate 2018, 03MAR06) | MIC50 ([2]; Staphylococcus aureus, 2 VISA isolates, combinations at 2.5:1, given as NB/partner) | MIC ([4]; Staphylococcus aureus, LRSA isolate 1651, 24FEB06) | MIC ([4]; Staphylococcus aureus, LRSA isolate 1652, 24FEB06) | MIC ([4]; Staphylococcus aureus, LRSA isolate 1725, 24FEB06) | MIC50 ([4]; Staphylococcus aureus, 3 LRSA isolates, combinations at 2.5:1) | MIC ([5]; Unconfirmed VISE isolate 2024, 09MAR06) | MIC ([6]; Unconfirmed VISA isolate 2014, 03MAR06) | MIC ([6]; Unconfirmed VISA isolate 2015, 03MAR06) | MIC ([6]; Unconfirmed VISA isolate 2019, 03MAR06)
>32 µg/mL: MIC Range ([2]; 2 VISA isolates, combinations at 2.5:1, given as NB/partner) | MIC Range ([4]; 3 LRSA isolates, combinations at 2.5:1)
4 µg/mL: MIC ([5]; Unconfirmed VISE isolate 2025, 09MAR06) | MIC ([6]; Unconfirmed VISA isolate 2013, 03MAR06) | MIC ([6]; Unconfirmed VISA isolate 2016, 03MAR06) | MIC50 ([6]; 6 unconfirmed VISA isolates (vancomycin MIC 4 ug/ml), combinations at 2.5:1)
16 µg/mL: MIC ([1]; Staphylococcus epidermidis, VISE isolate 2022, 03MAR06)
32 µg/mL: MIC ([5]; Unconfirmed VISE isolate 2026, 03MAR06) | MIC50 ([5]; 3 unconfirmed VISE isolates, combinations at 2.5:1)
